The results in this text go back to PubChem BioAssay (NCI).

Test systems include NCI-H522 lung; CAKI-1 renal; KM12 colon; HCC-2998 colon; DU-145 prostate; UACC-62 melanoma; RPMI-8226 leukemia; SW-620 colon; A549 NSCLC; K-562 leukemia.
Assay in all cases: growth of human tumour cells (NCI), 48 h

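Assay format: 96-well plates, 48-hour exposure. At the GI50, growth is halved. TGI: total growth inhibition.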

On to `CCOC(=O)Cc1c[nH]c(=S)[nH]c1=O`, for which the GI50 with NCI-H522 lung, in the assay with CAKI-1 renal, in the assay on KM12 colon, with HCC-2998 colon, in the assay on DU-145 prostate and in the assay with UACC-62 melanoma was over 100000 nM throughout. For the same molecule, the GI50 in the assay on RPMI-8226 leukemia, in the assay on SW-620 colon, in the assay with A549 NSCLC and in the assay with K-562 leukemia was over 100000 nM each time. Moreover, the TGI with NCI-H522 lung, in the assay on CAKI-1 renal, in the assay with KM12 colon, in the assay with HCC-2998 colon, with DU-145 prostate and in the assay on UACC-62 melanoma was over 100000 nM throughout. Besides, the TGI with RPMI-8226 leukemia, in the assay on SW-620 colon, in the assay with A549 NSCLC and in the assay with K-562 leukemia was over 100000 nM each time.

`CC[C@H](Nc1nc(N)nc(C)c1C#N)c1nc2cccc(CN(C)c3ncc(C(=O)NO)cn3)c2c(=O)n1-c1ccccc1`: the GI50 in the assay with NCI-H522 lung was 174 nM; with CAKI-1 renal, 2610 nM; with KM12 colon it was 1260 nM; in the assay on HCC-2998 colon, 806 nM; in the assay on DU-145 prostate, 1110 nM; in the assay on UACC-62 melanoma, 199 nM. Also, the GI50 is 212 nM with RPMI-8226 leukemia, 392 nM in the assay with SW-620 colon, 2060 nM in the assay on A549 NSCLC and 390 nM in the assay with K-562 leukemia. Further, the TGI in the assay on NCI-H522 lung is 4270 nM; in the assay with CAKI-1 renal it was 6560 nM; with KM12 colon, 5210 nM; with HCC-2998 colon, 2320 nM; with DU-145 prostate, over 16700 nM; with UACC-62 melanoma, 897 nM. In addition, the TGI in the assay with RPMI-8226 leukemia is over 40800 nM; in the assay on SW-620 colon it was 3430 nM; in the assay with A549 NSCLC it was 11100 nM; in the assay with K-562 leukemia, over 50000 nM.

Consider `CCN(CC)CCOc1ccc(C(=C(C)c2ccc(Cl)cc2)c2ccc(OCCN(CC)CC)cc2)cc1`, for which the GI50 is 591 nM in the assay on NCI-H522 lung; 504 nM in the assay with CAKI-1 renal; 666 nM in the assay with KM12 colon; 574 nM in the assay on HCC-2998 colon; 1090 nM with DU-145 prostate; 610 nM in the assay with UACC-62 melanoma. Further, the GI50 was 668 nM in the assay with RPMI-8226 leukemia, 556 nM in the assay on SW-620 colon, 632 nM in the assay with A549 NSCLC and 627 nM with K-562 leukemia. Moreover, the TGI in the assay with NCI-H522 lung was determined as 1250 nM; in the assay with CAKI-1 renal, 1020 nM; in the assay with KM12 colon, 1370 nM; in the assay with HCC-2998 colon, 1060 nM; with DU-145 prostate, 3470 nM; in the assay on UACC-62 melanoma, 1180 nM. Moreover, the TGI in the assay with RPMI-8226 leukemia came to 1490 nM; with SW-620 colon it was 1100 nM; in the assay with A549 NSCLC, 1310 nM; in the assay on K-562 leukemia, 1740 nM.
